# Test results reported in PMC6925656 (Clinical pharmacology and therapeutics, 2019).
# What was measured:
# [1] = system: HeLa cells; assay: Sorafenib uptake and membrane binding in HeLa cells; format: in vitro ADME; conditions: for Interference with non-specific membrane binding of sorafenib: isolated membrane fraction
# [2] = biological target: T1, human OCT1 (Homo sapiens, UniProt O15245); assay: Uptake into HEK293 cells expressing human OCT1
# T1 sequence (O15245 1-554): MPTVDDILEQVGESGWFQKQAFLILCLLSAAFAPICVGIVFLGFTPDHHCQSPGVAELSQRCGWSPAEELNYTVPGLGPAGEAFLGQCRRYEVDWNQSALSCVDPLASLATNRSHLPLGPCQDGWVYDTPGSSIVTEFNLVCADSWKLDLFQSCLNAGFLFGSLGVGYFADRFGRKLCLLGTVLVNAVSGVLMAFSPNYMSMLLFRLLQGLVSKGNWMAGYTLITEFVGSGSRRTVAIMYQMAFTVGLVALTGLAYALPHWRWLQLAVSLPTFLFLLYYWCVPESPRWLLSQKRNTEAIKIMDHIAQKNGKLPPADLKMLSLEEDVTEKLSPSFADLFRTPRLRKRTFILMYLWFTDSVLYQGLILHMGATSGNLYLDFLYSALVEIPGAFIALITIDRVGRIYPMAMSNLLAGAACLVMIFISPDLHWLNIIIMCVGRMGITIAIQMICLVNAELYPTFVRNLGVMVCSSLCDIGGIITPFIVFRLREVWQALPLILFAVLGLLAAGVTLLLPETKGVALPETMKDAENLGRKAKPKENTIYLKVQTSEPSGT
# [3] = biological target: T1, human OCT1; assay: Uptake into OCT1-expressing or nonexpressing Xenopus laevis oocytes
# [4] = system: HepG2 cells; assay: Uptake into HepG2 liver cancer cells; format: in vitro ADME, human
# [5] = system: Huh7 cells; assay: Uptake into Huh7 liver cancer cells; format: in vitro ADME, human
# [6] = system: Oct1; assay: Pharmacokinetics in Oct1-deficient versus wild-type mice; conditions: for Pharmacokinetic parameters, Oct1-deficient vs wild-type mice: sorafenib single oral dose 10 mg/kg, plasma
# [7] = biological target: T2, human OCT3 (Homo sapiens, UniProt O75751); assay: Sorafenib transport in HEK293 cells overexpressing human OCT3; format: in vitro ADME; conditions: HEK293 cells overexpressing human OCT3, Figure S1
# T2 sequence (O75751 1-556): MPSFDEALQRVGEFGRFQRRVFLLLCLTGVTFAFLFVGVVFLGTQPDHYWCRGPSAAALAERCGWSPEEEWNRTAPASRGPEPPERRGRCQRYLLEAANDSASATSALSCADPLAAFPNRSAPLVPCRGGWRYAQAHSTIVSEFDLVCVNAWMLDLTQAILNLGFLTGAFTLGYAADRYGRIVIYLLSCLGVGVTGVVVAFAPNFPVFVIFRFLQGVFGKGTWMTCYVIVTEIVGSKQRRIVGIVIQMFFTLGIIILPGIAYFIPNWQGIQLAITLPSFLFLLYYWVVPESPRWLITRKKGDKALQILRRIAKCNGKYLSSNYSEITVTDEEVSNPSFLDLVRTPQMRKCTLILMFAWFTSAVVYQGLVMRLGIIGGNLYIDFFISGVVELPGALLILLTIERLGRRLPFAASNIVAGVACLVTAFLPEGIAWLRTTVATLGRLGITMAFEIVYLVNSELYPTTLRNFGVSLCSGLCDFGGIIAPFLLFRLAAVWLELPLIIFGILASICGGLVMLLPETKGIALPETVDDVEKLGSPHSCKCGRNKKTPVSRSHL
# [8] = biological target: T3, hOATP2B1 (Homo sapiens, UniProt O94956); assay: Sorafenib uptake by HEK cells overexpressing hOATP2B1; format: in vitro ADME; conditions: Figure S4
# T3 sequence (O94956 1-709): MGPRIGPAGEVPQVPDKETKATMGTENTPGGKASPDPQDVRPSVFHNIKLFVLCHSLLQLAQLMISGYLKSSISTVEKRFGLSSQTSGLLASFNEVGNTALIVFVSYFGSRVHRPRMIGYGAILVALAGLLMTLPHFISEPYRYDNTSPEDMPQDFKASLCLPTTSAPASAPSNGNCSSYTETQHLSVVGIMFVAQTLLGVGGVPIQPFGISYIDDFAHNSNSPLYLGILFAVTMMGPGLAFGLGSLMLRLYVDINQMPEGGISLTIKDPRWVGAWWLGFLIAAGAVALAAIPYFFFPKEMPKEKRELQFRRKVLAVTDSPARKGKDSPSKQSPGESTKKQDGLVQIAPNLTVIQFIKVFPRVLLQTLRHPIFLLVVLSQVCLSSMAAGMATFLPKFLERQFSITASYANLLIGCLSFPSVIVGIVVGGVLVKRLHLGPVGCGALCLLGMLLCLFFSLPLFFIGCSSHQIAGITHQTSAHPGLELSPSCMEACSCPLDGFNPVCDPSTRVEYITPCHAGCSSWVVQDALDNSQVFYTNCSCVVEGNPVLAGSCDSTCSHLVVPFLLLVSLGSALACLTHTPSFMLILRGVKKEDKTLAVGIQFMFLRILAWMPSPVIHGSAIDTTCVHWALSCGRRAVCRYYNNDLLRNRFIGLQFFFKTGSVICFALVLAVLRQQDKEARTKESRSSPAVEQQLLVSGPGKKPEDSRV
# [9] = biological target: T4, mOATP2B1 (Mus musculus, UniProt Q8BXB6); assay: Sorafenib uptake by HEK cells overexpressing mOATP2B1; format: in vitro ADME; conditions: Figure S4
# T4 sequence (Q8BXB6 1-683): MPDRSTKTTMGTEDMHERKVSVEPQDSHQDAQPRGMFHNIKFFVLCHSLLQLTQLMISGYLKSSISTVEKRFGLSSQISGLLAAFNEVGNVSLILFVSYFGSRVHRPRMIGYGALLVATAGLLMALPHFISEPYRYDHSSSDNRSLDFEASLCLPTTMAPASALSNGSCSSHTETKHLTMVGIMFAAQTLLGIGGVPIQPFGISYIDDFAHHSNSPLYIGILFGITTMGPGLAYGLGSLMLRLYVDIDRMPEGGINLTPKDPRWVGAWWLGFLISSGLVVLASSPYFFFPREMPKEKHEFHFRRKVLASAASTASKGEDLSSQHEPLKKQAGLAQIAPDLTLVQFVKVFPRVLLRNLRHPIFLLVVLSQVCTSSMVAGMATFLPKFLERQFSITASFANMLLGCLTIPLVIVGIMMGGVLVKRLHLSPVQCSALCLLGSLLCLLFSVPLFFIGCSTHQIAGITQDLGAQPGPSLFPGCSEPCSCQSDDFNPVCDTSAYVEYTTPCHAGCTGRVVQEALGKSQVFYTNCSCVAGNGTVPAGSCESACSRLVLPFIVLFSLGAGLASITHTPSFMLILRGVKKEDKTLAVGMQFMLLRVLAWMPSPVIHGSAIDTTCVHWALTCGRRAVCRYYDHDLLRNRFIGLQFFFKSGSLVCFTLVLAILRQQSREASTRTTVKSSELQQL
# [10] = biological target: T5, OATP2B1 (Mus musculus, UniProt Q8BXB6); assay: Sorafenib pharmacokinetics in OATP2B1-deficient mice; format: in vivo; conditions: Figure S4
# T5 sequence (Q8BXB6 1-683): T4 sequence (Q8BXB6 1-683)
# [11] = biological target: human OCT2 (Homo sapiens, UniProt O15244); conditions: HEK293 cells overexpressing human OCT2, Figure S1
# [12] = biological target: p38α (MAPK14) (Homo sapiens, UniProt Q16539); conditions: live HEK293 cells, 60 min; BIRB796 5 nM, sorafenib 5 μM; DMSO 44.3 °C
# [13] = system: p38α; conditions: cited from earlier work
# [14] = cited from earlier work
# [15] = system: OCT1; conditions: cited from earlier work
# human OCT2, sequence (O15244 whole entry): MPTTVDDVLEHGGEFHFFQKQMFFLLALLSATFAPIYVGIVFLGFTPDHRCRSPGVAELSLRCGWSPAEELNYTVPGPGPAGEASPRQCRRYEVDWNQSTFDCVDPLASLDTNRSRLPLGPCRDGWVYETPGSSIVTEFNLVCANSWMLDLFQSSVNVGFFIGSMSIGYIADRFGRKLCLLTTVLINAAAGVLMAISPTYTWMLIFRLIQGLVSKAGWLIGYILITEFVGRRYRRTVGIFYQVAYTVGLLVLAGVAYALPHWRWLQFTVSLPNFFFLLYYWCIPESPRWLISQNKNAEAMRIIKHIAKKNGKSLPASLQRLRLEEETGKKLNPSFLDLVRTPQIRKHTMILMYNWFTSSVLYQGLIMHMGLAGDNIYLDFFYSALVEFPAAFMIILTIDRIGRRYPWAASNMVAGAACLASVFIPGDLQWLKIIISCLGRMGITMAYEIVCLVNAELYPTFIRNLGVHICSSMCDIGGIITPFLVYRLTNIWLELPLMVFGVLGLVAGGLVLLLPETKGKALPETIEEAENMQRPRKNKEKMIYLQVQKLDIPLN
# p38α (MAPK14), sequence (Q16539 whole entry): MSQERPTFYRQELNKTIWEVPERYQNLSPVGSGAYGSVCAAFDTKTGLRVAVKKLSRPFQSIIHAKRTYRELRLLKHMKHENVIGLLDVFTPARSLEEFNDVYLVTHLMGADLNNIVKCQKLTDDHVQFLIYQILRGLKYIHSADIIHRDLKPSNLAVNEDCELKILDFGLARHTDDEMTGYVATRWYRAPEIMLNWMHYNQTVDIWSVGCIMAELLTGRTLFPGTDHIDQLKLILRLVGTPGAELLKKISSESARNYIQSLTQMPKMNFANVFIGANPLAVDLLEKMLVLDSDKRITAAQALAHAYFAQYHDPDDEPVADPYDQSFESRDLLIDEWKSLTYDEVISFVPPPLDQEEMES
compound,measurement,setting,value
CCN1/C(=C/c2ccc3ccccc3[n+]2CC)C=Cc2ccccc21.[I-] [decynium22],Interference with non-specific membrane binding of sorafenib,[1]; HeLa cells,neither inhibitor interfered
same,Effect of inhibitor on sorafenib uptake in HEK293-OCT1 and HEK293-VC cells,"[2]; decynium22 5 μM, sorafenib 0.2 μM, 10 min",decreased sorafenib uptake
same,Effect of inhibitor on TEA uptake in OCT1 transfectants,"[2]; probe substrate TEA, OCT1-transfected HEK293 cells",almost completely abolished
C[n+]1ccc(-c2ccccc2)cc1 [MPP],"Increase of MPP uptake, OCT1 present vs absent","[3]; MPP 1 μM, 20 min",13 fold
same,Uptake of MPP into oocytes in the presence of OCT1,"[3]; MPP 1 μM, 20 min, OCT1-expressing oocytes",2.1 pmol/oocyte/20 min
same,Uptake of MPP into oocytes in the absence of OCT1,"[3]; MPP 1 μM, 20 min, nonexpressing oocytes",0.16 pmol/oocyte/20 min
same,Effect of excess MPP on OCT1-mediated MPP uptake,"[3]; […] MPP as inhibitor, 1 μM MPP as substrate",completely blocked
CC[N+](CC)(CC)CC [TEA],TEA uptake compared to HEK293-OCT1 cells,"[4]; HepG2, TEA 100 μM, 10 min",did not take up appreciable levels
same,TEA uptake compared to HEK293-OCT1 cells,"[5]; Huh7, TEA 100 μM, 10 min",did not take up appreciable levels
same,Increase of TEA uptake in HEK293-OCT1 vs HEK293-VC cells,"[2]; TEA 100 μM, 10 min",23.5±1.2 fold
CNC(=O)c1cc(Oc2ccc(NC(=O)Nc3ccc(Cl)c(C(F)(F)F)c3)cc2)cc[n+]1[O-] [sorafenib-N-oxide],Hepatic levels,"[6]; sorafenib 10 mg/kg oral, 7.5 h, data not shown",below the lower limit of quantification
same,"Pharmacokinetic parameters, Oct1-deficient vs wild-type mice",[6],minimal difference
same,Transport of sorafenib-N-oxide by OCT1,"[2]; 1 μM, HEK293 cells expressing VC or OCT1, time-dependent uptake",not transported by OCT1
CNC(=O)c1cc(Oc2ccc(NC(=O)Nc3ccc(Cl)c(C(F)(F)F)c3)cc2)ccn1 [sorafenib],Transport of sorafenib by OCT3,[7],do not transport sorafenib
same,Characteristics of intracellular accumulation of sorafenib,[4]; HepG2,"saturable, increased over time, and was found to be temperature-dependent"
same,Characteristics of intracellular accumulation of sorafenib,[5]; Huh7,"saturable, increased over time, and was found to be temperature-dependent"
same,Apparent cellular uptake of sorafenib,"[1]; HeLa cells, sorafenib 0.2 μM, 10-min incubation",> 800 pmol/mg protein
same,"Non-specific binding to cell membranes, share of total cell-associated drug",[1]; confirms earlier observation of ref 25,up to 70%
same,"Sorafenib uptake, HEK-VC vs hOATP2B1-overexpressing HEK cells",[8],did not detect a different sorafenib uptake
same,"Sorafenib uptake, HEK-VC vs mOATP2B1-overexpressing HEK cells",[9],did not detect a different sorafenib uptake
same,Effect of OATP2B1 deficiency in mice on sorafenib pharmacokinetics,[10],did not detect
same,Transport of sorafenib by OCT2,[11],do not transport sorafenib
same,Apparent aggregation temperature of p38α,[12],54.5 °C
same,IC50,[13],38 nM
same,Fraction of dose found in urine,[14],About 19%
same,Inhibition of the transport of known OCT1 substrates,[15],poor inhibitor
same,"Liver concentrations, Oct1-deficient vs wild-type mice","[6]; sorafenib 10 mg/kg oral, 7.5 h",no significant differences
same,"Pharmacokinetic parameters, Oct1-deficient vs wild-type mice",[6],minimal difference
same,"Sorafenib uptake, OCT1-expressing vs nonexpressing oocytes","[3]; sorafenib 2 μM, 20 min, absence or presence of MPP […]",not different
same,"Sorafenib uptake, HEK293-OCT1 vs HEK293-VC cells","[2]; sorafenib 0.2 μM, 10 min",no difference
same,Sorafenib transport at 4 °C compared with 37 °C,"[2]; sorafenib 7.5 μM, HEK293 cells, independently of OCT1",reduced
same,Time at which sorafenib uptake reaches a plateau,"[2]; sorafenib 7.5 μM, both HEK293-OCT1 and HEK293-VC cells",about 10 min
cyclosporin A,Interference with non-specific membrane binding of sorafenib,[1]; HeLa cells,neither inhibitor interfered
